This assay relates to IL-1β release from THP-1 cells. Kind of assay: IL-1β Release Assay (Alternate Method), THP-1 cells. The assay is classed as cell-based, human. Conditions: at 0.3 μM; THP-1 cells. How it is done:
THP-1 cells (ATCC Cat #285-IF-100) are plated in 96 well plates at a concentration of 200,000 cells per well and allowed to differentiate in RPMI-1640 media (ATCC Cat #30-2001) containing 10% FBS, 100 IU/mL penicillin, 100 ug/mL streptomycin, 100 ng/mL LPS and 100 ng/mL IFN-γ for 16 hours. Following differentiation, the cells are treated for an additional 2 hours in RPMI-1640 media containing 100 IU/mL penicillin, 100 ug/mL streptomycin and fresh LPS at 100 ng/mL. The cells are then pretreated for 30 minutes with the compound of interest at the appropriate concentration in RPMI media containing 100 IU/mL penicillin, 100 ug/mL streptomycin. Following the pretreatment 2′, 3′-O-(4-benzoylbenzoyl)-adenosine 5′-triphosphate (Sigma Aldrich Cat#B6396) is added to a final concentration of 250 uM and the cells incubated for an additional 45 minutes. 30 uL of cell supernatant is then collected and IL-1β levels determined via ELISA (R&D systems Cat. #HSLB50) according to manufacturer's recommendations using the Tecan Safire plate reader. Background adjusted IL-1β levels of drug treated and non-treated cells are used to calculate the percent inhibition.
With `O=C(NCC1CCCCC1)c1ncnc2c1CCN(Cc1ccncc1)C2` [Compound 49], the IL-1β % inhibition entry is on record as “+ (compound exhibited 0-25% inhibition at 0.3 μM)”.
To `O=C(NCC1CCCCC1)c1ncnc2c1CCN(Cc1ccccc1Cl)C2` [Compound 50] belongs “+ (compound exhibited 0-25% inhibition at 0.3 μM)”; to `O=C(NCC1CCCCC1)c1ncnc2c1CCN(Cc1ccc(Cl)cc1)C2` [Compound 51], “+ (compound exhibited 0-25% inhibition at 0.3 μM)”; to `O=C(NCC1CCCCC1)c1ncnc2c1CCN(Cc1ccccn1)C2` [Compound 52], “+ (compound exhibited 0-25% inhibition at 0.3 μM)”.
With `O=C(NCC1CCCCC1)c1ncnc2c1CCN(Cc1cccc(Cl)c1)C2` [Compound 53], the IL-1β % inhibition result is on record as “+ (compound exhibited 0-25% inhibition at 0.3 μM)”.
On to `COc1ccc(CN2CCc3c(ncnc3C(=O)NCC3CCCCC3)C2)cc1` [Compound 54], for which the IL-1β % inhibition entry is on record as “+ (compound exhibited 0-25% inhibition at 0.3 μM)”.
Take `Cc1ccc(CN2CCc3c(ncnc3C(=O)NCC3CCCCC3)C2)cc1` [Compound 55]: the IL-1β % inhibition entry is “+ (compound exhibited 0-25% inhibition at 0.3 μM)”.
For `CS(=O)(=O)c1ccc(CN2CCc3c(ncnc3C(=O)NCC3CCCCC3)C2)cc1` [Compound 56] the value was “+ (compound exhibited 0-25% inhibition at 0.3 μM)”; for `O=C(NCC1(O)CCCCCC1)c1ncnc2c1CCN(Cc1ccccc1)C2` [Compound 58], “+ (compound exhibited 0-25% inhibition at 0.3 μM)”.
For `CC1(C)CCCC(O)(CNC(=O)c2ncnc3c2CCN(Cc2ccccc2)C3)C1` (stereo not drawn) [Compound 59] the value was “+ (compound exhibited 0-25% inhibition at 0.3 μM)”.
For `Cc1ccc(C2(CNC(=O)c3ncnc4c3CCN(Cc3ccccc3)C4)CCCCC2)cc1` [Compound 60] the value was “+ (compound exhibited 0-25% inhibition at 0.3 μM)”.
`O=C(CC12CC3CC(CC(C3)C1)C2)Nc1ncnc2c1CCN(Cc1ccccn1)C2` [Compound 61]: the IL-1β % inhibition entry is listed as “+ (compound exhibited 0-25% inhibition at 0.3 μM)”.
For `CC(=O)Nc1ccc(CN2CCc3c(ncnc3NC(=O)CC34CC5CC(CC(C5)C3)C4)C2)cc1` [Compound 62], the IL-1β % inhibition entry was “+++ (compound exhibited 50-75% inhibition at 0.3 μM)”.
As to `O=C(CC12CC3CC(CC(C3)C1)C2)Nc1ncnc2c1CCN(CCCc1ccccc1)C2` [Compound 63], the IL-1β % inhibition result is “+ (compound exhibited 0-25% inhibition at 0.3 μM)”.
For `O=C(CC12CC3CC(CC(C3)C1)C2)Nc1ncnc2c1CCN(Cc1ccc3[nH]ccc3c1)C2` [Compound 64] the value was “+ (compound exhibited 0-25% inhibition at 0.3 μM)”.
For `O=C(CC12CC3CC(CC(C3)C1)C2)Nc1ncnc2c1CCN(Cc1ccc(-c3ccccn3)cc1)C2` [Compound 65] the value was “+ (compound exhibited 0-25% inhibition at 0.3 μM)”; for `Cc1ccc(CN2CCc3c(ncnc3NC(=O)CC34CC5CC(CC(C5)C3)C4)C2)s1` [Compound 66], “+ (compound exhibited 0-25% inhibition at 0.3 μM)”; for `Cn1ccnc1CN1CCc2c(ncnc2NC(=O)CC23CC4CC(CC(C4)C2)C3)C1` [Compound 67], “++ (compound exhibited 25-50% inhibition at 0.3 μM)”.
For `O=C(CC12CC3CC(CC(C3)C1)C2)Nc1ncnc2c1CCN(Cc1cccc(Oc3ccccc3)c1)C2` [Compound 68] the value was “+ (compound exhibited 0-25% inhibition at 0.3 μM)”; for `O=C(CC12CC3CC(CC(C3)C1)C2)Nc1ncnc2c1CCN(Cc1ccnc3ccccc13)C2` [Compound 69], “+ (compound exhibited 0-25% inhibition at 0.3 μM)”; for `O=C(CC12CC3CC(CC(C3)C1)C2)Nc1ncnc2c1CCN(Cc1cccc(C(F)(F)F)c1)C2` [Compound 70], “+ (compound exhibited 0-25% inhibition at 0.3 μM)”.
For the molecule `CC(C)(C)c1ccc(CN2CCc3c(ncnc3NC(=O)CC34CC5CC(CC(C5)C3)C4)C2)cc1` [Compound 71], the IL-1β % inhibition entry was “+ (compound exhibited 0-25% inhibition at 0.3 μM)”.
To `O=C(CC12CC3CC(CC(C3)C1)C2)Nc1ncnc2c1CCN(Cc1ccc(C(F)(F)F)cc1)C2` [Compound 72] belongs “+ (compound exhibited 0-25% inhibition at 0.3 μM)”.
For `O=C(CC12CC3CC(CC(C3)C1)C2)Nc1ncnc2c1CCN(Cc1ccc3ccccc3n1)C2` [Compound 73] the value was “+ (compound exhibited 0-25% inhibition at 0.3 μM)”; for `O=C(CC12CC3CC(CC(C3)C1)C2)Nc1ncnc2c1CCN(Cc1ccc(OC(F)(F)F)cc1)C2` [Compound 74], “+ (compound exhibited 0-25% inhibition at 0.3 μM)”.
To `O=C(CC12CC3CC(CC(C3)C1)C2)Nc1ncnc2c1CCN(Cc1ccc(Oc3ccccc3)cc1)C2` [Compound 75] belongs “+ (compound exhibited 0-25% inhibition at 0.3 μM)”; to `O=C(CC12CC3CC(CC(C3)C1)C2)Nc1ncnc2c1CCN(Cc1ccccc1OC(F)(F)F)C2` [Compound 76], “+ (compound exhibited 0-25% inhibition at 0.3 μM)”.
As to `O=C(CC12CC3CC(CC(C3)C1)C2)Nc1ncnc2c1CCN(Cc1ccccc1OC(F)F)C2` [Compound 77], the IL-1β % inhibition entry is on record as “+ (compound exhibited 0-25% inhibition at 0.3 μM)”.
For `O=C(CC12CC3CC(CC(C3)C1)C2)Nc1ncnc2c1CCN(Cc1ccc(OC(F)F)cc1)C2` [Compound 78] the value was “+ (compound exhibited 0-25% inhibition at 0.3 μM)”; for `O=C(CC12CC3CC(CC(C3)C1)C2)Nc1ncnc2c1CCN(Cc1ccc(-c3ccccc3)s1)C2` [Compound 79], “+ (compound exhibited 0-25% inhibition at 0.3 μM)”; for `CCCCc1nc(CN2CCc3c(ncnc3NC(=O)CC34CC5CC(CC(C5)C3)C4)C2)c[nH]1` [Compound 80], “++ (compound exhibited 25-50% inhibition at 0.3 μM)”.
To `Cc1nc[nH]c1CN1CCc2c(ncnc2NC(=O)CC23CC4CC(CC(C4)C2)C3)C1` [Compound 81] belongs “+++ (compound exhibited 50-75% inhibition at 0.3 μM)”; to `O=C(CC12CC3CC(CC(C3)C1)C2)Nc1ncnc2c1CCN(Cc1c[nH]cn1)C2` [Compound 82], “+++ (compound exhibited 50-75% inhibition at 0.3 μM)”; to `O=C(CC12CC3CC(CC(C3)C1)C2)Nc1ncnc2c1CCN(Cc1ccc(Cl)s1)C2` [Compound 83], “++++ (compound exhibited 75% or greater inhibition at 0.3 μM)”.
To `N#Cc1cc(CN2CCc3c(ncnc3NC(=O)CC34CC5CC(CC(C5)C3)C4)C2)ccc1F` [Compound 84] belongs “+ (compound exhibited 0-25% inhibition at 0.3 μM)”; to `Cc1ccc(CN2CCc3c(ncnc3NC(=O)CC34CC5CC(CC(C5)C3)C4)C2)cc1F` [Compound 85], “+ (compound exhibited 0-25% inhibition at 0.3 μM)”.
For `Cc1cc(CN2CCc3c(ncnc3NC(=O)CC34CC5CC(CC(C5)C3)C4)C2)ccc1F` [Compound 86], the IL-1β % inhibition result was “++ (compound exhibited 25-50% inhibition at 0.3 μM)”.
For `Cc1ccc(Cl)c(CN2CCc3c(ncnc3NC(=O)CC34CC5CC(CC(C5)C3)C4)C2)c1F` [Compound 87] the value was “++ (compound exhibited 25-50% inhibition at 0.3 μM)”.
To `Cc1ccc(F)c(CN2CCc3c(ncnc3NC(=O)CC34CC5CC(CC(C5)C3)C4)C2)c1Cl` [Compound 88] belongs “+++ (compound exhibited 50-75% inhibition at 0.3 μM)”.

The values above are taken from patent publication US7297700B2, “Bicycloheteroaryl compounds as P2X7 modulators and uses thereof” (Renovis, Inc., priority 2005, dated 2007).
